Results taken from ChEMBL document CHEMBL4840380, “The Psychedelic Renaissance: Addressing Potential Adverse Effects in a Therapeutic Setting” (ACS Med Chem Lett, 2021).

What was measured:
[1] = biological target: 5-hydroxytryptamine receptor 2A (Homo sapiens) (UniProt P28223); assay: Agonist activity at 5HT2A receptor (unknown origin) expressed in HEK293 cells assessed as maximal effect by FLIPR calcium flux assay relative to control; format: functional, cell-based; details: filed as agonist
Mus musculus = assay: Antipsychotic activity in sc dosed C57BL/6 mouse assessed as DOI-induced head twitching observed for 20 mins; format: functional, organism-based; details: dose 1-100 mg/kg

Chain of 5-hydroxytryptamine receptor 2A (Homo sapiens) (P28223 whole entry): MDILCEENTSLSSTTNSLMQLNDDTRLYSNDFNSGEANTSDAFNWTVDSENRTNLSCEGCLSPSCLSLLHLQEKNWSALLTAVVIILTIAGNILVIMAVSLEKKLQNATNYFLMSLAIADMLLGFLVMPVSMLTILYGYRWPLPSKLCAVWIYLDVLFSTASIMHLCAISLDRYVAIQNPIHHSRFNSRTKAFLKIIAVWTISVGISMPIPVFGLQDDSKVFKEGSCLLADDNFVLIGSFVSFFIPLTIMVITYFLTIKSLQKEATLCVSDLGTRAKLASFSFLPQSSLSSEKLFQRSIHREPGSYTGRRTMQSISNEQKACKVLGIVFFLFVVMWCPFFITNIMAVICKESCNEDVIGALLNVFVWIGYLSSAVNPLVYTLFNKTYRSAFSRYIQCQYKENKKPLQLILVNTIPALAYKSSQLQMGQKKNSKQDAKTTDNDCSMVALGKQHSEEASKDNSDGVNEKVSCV

Compound	Emax [1] [%]	Activity (Mus musculus)
CN(C)CCc1c[nH]c2ccccc12	93.4	–
CCN(C)CCc1c[nH]c2ccc(F)cc12	87.6	Dose-Dependent Effect
CCCN(CC)CCc1c[nH]c2ccc(F)cc12	104	Dose-Dependent Effect
